Assay results taken from patent US20240043427A1 (Gilead Sciences, Inc., priority 2020, published 2024).
pEC50, pIC50: −log10 of the molar value.

Tests used:
[1] = target: T1, CD73 (Homo sapiens (Human), UniProt P21589); assay type: biochemical; details: 1 mM NaH2PO4 in enzyme buffer, CD73 0.3 nM, AMP 15 uM
[2] = target: T1, CD73; assay: MDA-MB-231 Cell Based CD73 Activity Assay (DMEM); details: MDA-MB-231-GFP cells, DMEM medium with 10% human plasma, 200 uM AMP

T1 sequence (P21589 27-574): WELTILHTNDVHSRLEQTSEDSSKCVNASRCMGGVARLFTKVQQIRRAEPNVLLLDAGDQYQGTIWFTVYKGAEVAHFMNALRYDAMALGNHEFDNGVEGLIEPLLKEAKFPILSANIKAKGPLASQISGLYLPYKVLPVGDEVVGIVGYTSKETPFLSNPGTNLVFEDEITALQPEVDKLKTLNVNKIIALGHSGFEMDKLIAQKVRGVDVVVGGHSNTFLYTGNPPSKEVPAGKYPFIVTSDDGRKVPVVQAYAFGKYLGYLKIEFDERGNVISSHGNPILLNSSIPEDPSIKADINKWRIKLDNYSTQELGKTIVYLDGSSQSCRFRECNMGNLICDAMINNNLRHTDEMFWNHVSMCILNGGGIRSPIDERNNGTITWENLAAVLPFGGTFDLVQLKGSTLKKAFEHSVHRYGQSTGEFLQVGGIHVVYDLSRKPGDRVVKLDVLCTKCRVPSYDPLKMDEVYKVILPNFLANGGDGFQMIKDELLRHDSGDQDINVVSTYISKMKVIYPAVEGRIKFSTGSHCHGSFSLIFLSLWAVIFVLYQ

| pIC50 [1] | pEC50 [2] | Structure (SMILES) |
| --- | --- | --- |
| 9.07 | 9.07 | CC(C)n1ncc2ccc([C@H]3C[C@@H]3c3cc(-c4c[nH]c(=O)[nH]c4=O)nn4ccnc34)cc21 [Example 120, 5-(8-((1S,2S)-2-(1-isopropyl-1H-indazol-6-yl)cyclopropyl)imidazo[1,2-b]pyridazin-6-yl)pyrimidine-2,4(1H,3H)-dione] |
| 8.62 | 7.95 | O=c1[nH]cc(-c2cc([C@H]3C[C@@H]3c3ccc(OC(F)F)nc3)c3ncc(F)n3n2)c(=O)[nH]1 [Example 122, 5-(8-((1S,2S)-2-(6-(difluoromethoxy)pyridin-3-yl)cyclopropyl)-3-fluoroimidazo[1,2-b]pyridazin-6-yl)pyrimidine-2,4(1H,3H)-dione] |
| 8.59 | 9.21 | O=c1[nH]cc(-c2cc([C@@H]3C[C@H]3c3ccc4cnn(CC(F)F)c4c3)c3nccn3n2)c(=O)[nH]1 [Example 124, 5-(8-((1R,2R)-2-(1-(2,2-difluoroethyl)-1H-indazol-6-yl)cyclopropyl)imidazo[1,2-b]pyridazin-6-yl)pyrimidine-2,4(1H,3H)-dione] |
| 9.15 | 9.77 | O=c1[nH]cc(-c2cc([C@H]3C[C@@H]3c3ccc4cnn(CC(F)F)c4c3)c3nccn3n2)c(=O)[nH]1 [Example 125, 5-(8-((1S,2S)-2-(1-(2,2-difluoroethyl)-1H-indazol-6-yl)cyclopropyl)imidazo[1,2-b]pyridazin-6-yl)pyrimidine-2,4(1H,3H)-dione] |
| 8.95 | 9.34 | O=c1[nH]cc(-c2cc([C@H]3C[C@@H]3c3ccc4ccn(CC(F)(F)F)c4n3)c3nccn3n2)c(=O)[nH]1 [Example 126, 5-(8-((1S,2S)-2-(1-(2,2,2-trifluoroethyl)-1H-pyrrolo[2,3-b]pyridin-6-yl)cyclopropyl)imidazo[1,2-b]pyridazin-6-yl)pyrimidine-2,4(1H,3H)-dione] |
| 8.95 | 9.52 | O=c1[nH]cc(-c2cc([C@H]3C[C@@H]3c3ccc4cnn(CC(F)F)c4c3F)c3nccn3n2)c(=O)[nH]1 [Example 129, 5-(8-((1S,2S)-2-(1-(2,2-difluoroethyl)-7-fluoro-1H-indazol-6-yl)cyclopropyl)imidazo[1,2-b]pyridazin-6-yl)pyrimidine-2,4(1H,3H)-dione] |
| 9.11 | 8.21 | O=c1[nH]cc(-c2cc([C@H]3C[C@@H]3c3ccc4nc(C(F)(F)F)ccc4c3)c3nccn3n2)c(=O)[nH]1 [Example 131, 5-(8-((1S,2S)-2-(2-(trifluoromethyl)quinolin-6-yl)cyclopropyl)imidazo[1,2-b]pyridazin-6-yl)pyrimidine-2,4(1H,3H)-dione] |
| 8.92 | 7.71 | O=c1[nH]cc(-c2cc([C@H]3C[C@@H]3c3ccc(OC(F)F)cn3)c3ncc(F)n3n2)c(=O)[nH]1 [Example 132, 5-(8-((1S,2S)-2-(5-(difluoromethoxy)pyridin-2-yl)cyclopropyl)-3-fluoroimidazo[1,2-b]pyridazin-6-yl)pyrimidine-2,4(1H,3H)-dione] |
| 9.04 | 8.80 | O=c1[nH]cc(-c2cc([C@H]3C[C@@H]3c3ccc4cnc(C(F)(F)F)cc4c3)c3nccn3n2)c(=O)[nH]1 [Example 133, 5-(8-((1S,2S)-2-(3-(trifluoromethyl)isoquinolin-6-yl)cyclopropyl)imidazo[1,2-b]pyridazin-6-yl)pyrimidine-2,4(1H,3H)-dione] |
| 8.93 | 7.64 | O=c1[nH]cc(-c2cc([C@H]3C[C@@H]3c3cc(C(F)(F)F)c4ncccc4c3)c3ncc(F)n3n2)c(=O)[nH]1 [Example 134, 5-(3-fluoro-8-((1S,2S)-2-(8-(trifluoromethyl)quinolin-6-yl)cyclopropyl)imidazo[1,2-b]pyridazin-6-yl)pyrimidine-2,4(1H,3H)-dione] |
| 8.70 | 7.36 | O=c1[nH]cc(-c2cc([C@H]3C[C@@H]3c3cc(C(F)(F)F)c4ncccc4c3)c3nccn3n2)c(=O)[nH]1 [Example 135, 5-(8-((1S,2S)-2-(8-(trifluoromethyl)quinolin-6-yl)cyclopropyl)imidazo[1,2-b]pyridazin-6-yl)pyrimidine-2,4(1H,3H)-dione] |
| 8.89 | 8.33 | O=c1[nH]cc(-c2cc([C@H]3C[C@@H]3c3ccc(OC(F)F)cn3)c3nccn3n2)c(=O)[nH]1 [Example 137, 5-(8-((1S,2S)-2-(5-(difluoromethoxy)pyridin-2-yl)cyclopropyl)imidazo[1,2-b]pyridazin-6-yl)pyrimidine-2,4(1H,3H)-dione] |
| 8.34 | 6.53 | O=c1[nH]cc(-c2cc([C@H]3C[C@@H]3c3ccc4c(C(F)(F)F)ccnc4c3)c3nccn3n2)c(=O)[nH]1 [Example 139, 5-(8-((1S,2S)-2-(4-(trifluoromethyl)quinolin-7-yl)cyclopropyl)imidazo[1,2-b]pyridazin-6-yl)pyrimidine-2,4(1H,3H)-dione] |
| 8.77 | 8.28 | O=c1[nH]cc(-c2cc([C@H]3C[C@@H]3c3ccc(OC(F)F)nc3)c3nccn3n2)c(=O)[nH]1 [Example 140, 5-(8-((1S,2S)-2-(6-(difluoromethoxy)pyridin-3-yl)cyclopropyl)imidazo[1,2-b]pyridazin-6-yl)pyrimidine-2,4(1H,3H)-dione] |
| 8.64 | 8.21 | O=c1[nH]cc(-c2cc([C@H]3C[C@@H]3c3ccc(C(F)(F)F)cn3)c3ncc(F)n3n2)c(=O)[nH]1 [Example 144, 5-(3-fluoro-8-((1S,2S)-2-(5-(trifluoromethyl)pyridin-2-yl)cyclopropyl)imidazo[1,2-b]pyridazin-6-yl)pyrimidine-2,4(1H,3H)-dione] |
| 7.69 | 7.38 | CC1(C)CN(c2cc(-c3c[nH]c(=O)[nH]c3=O)nn3cc(C4CC4)nc23)CC1(F)F [Example 145, 5-(2-cyclopropyl-8-(3,3-difluoro-4,4-dimethylpyrrolidin-1-yl)imidazo[1,2-b]pyridazin-6-yl)pyrimidine-2,4(1H,3H)-dione] |
| 8.21 | 7.33 | O=c1[nH]cc(-c2cc([C@H]3C[C@@H]3c3ccc(F)cc3F)c3nc(C4CC4)cn3n2)c(=O)[nH]1 [Example 146, 5-(2-cyclopropyl-8-((1S,2S)-2-(2,4-difluorophenyl)cyclopropyl)imidazo[1,2-b]pyridazin-6-yl)pyrimidine-2,4(1H,3H)-dione] |
| 7.41 | 7.02 | O=c1[nH]cc(-c2cc(N3CC(F)C4(CC4)C3)n3nccc3n2)c(=O)[nH]1 (stereo not shown) [Example 147, 5-(7-(7-fluoro-5-azaspiro[2.4]heptan-5-yl)pyrazolo[1,5-a]pyrimidin-5-yl)pyrimidine-2,4(1H,3H)-dione] |
| 8.10 | 7.75 | O=c1[nH]cc(-c2cc(N3CC(F)C4(CC4)C3)c3ncc(F)n3n2)c(=O)[nH]1 (stereo not shown) [Example 148, 5-(3-fluoro-8-(7-fluoro-5-azaspiro[2.4]heptan-5-yl)imidazo[1,2-b]pyridazin-6-yl)pyrimidine-2,4(1H,3H)-dione] |
| 8.71 | 8.32 | O=c1[nH]cc(-c2cc([C@H]3C[C@@H]3c3ccc(C(F)(F)F)cn3)c3nccn3n2)c(=O)[nH]1 [Example 150, 5-(8-((1S,2S)-2-(5-(trifluoromethyl)pyridin-2-yl)cyclopropyl)imidazo[1,2-b]pyridazin-6-yl)pyrimidine-2,4(1H,3H)-dione] |
| 8.64 | 8.05 | O=c1[nH]cc(-c2cc([C@H]3C[C@@H]3c3ccc(C(F)(F)F)nc3)c3nccn3n2)c(=O)[nH]1 [Example 153, 5-(8-((1S,2S)-2-(6-(trifluoromethyl)pyridin-3-yl)cyclopropyl)imidazo[1,2-b]pyridazin-6-yl)pyrimidine-2,4(1H,3H)-dione] |
| 9.26 | 8.60 | N#Cc1ccc([C@H]2C[C@@H]2c2cc(-c3c[nH]c(=O)[nH]c3=O)nn3c(F)cnc23)cc1 [Example 158, 4-((1S,2S)-2-(6-(2,4-dioxo-1,2,3,4-tetrahydropyrimidin-5-yl)-3-fluoroimidazo[1,2-b]pyridazin-8-yl)cyclopropyl)benzonitrile] |
| 8.75 | 8.58 | O=c1[nH]cc(-c2cc([C@H]3C[C@@H]3c3ccccn3)c3nccn3n2)c(=O)[nH]1 [Example 159, 5-(8-((1S,2S)-2-(pyridin-2-yl)cyclopropyl)imidazo[1,2-b]pyridazin-6-yl)pyrimidine-2,4(1H,3H)-dione] |
| 8.79 | 8.36 | O=c1[nH]cc(-c2cc([C@H]3C[C@@H]3c3cccnc3)c3nccn3n2)c(=O)[nH]1 [Example 162, 5-(8-((1S,2S)-2-(pyridin-3-yl)cyclopropyl)imidazo[1,2-b]pyridazin-6-yl)pyrimidine-2,4(1H,3H)-dione] |
| 7.13 | 6.72 | O=c1[nH]cc(-c2cc(N3CCC(F)(C(F)(F)F)C3)c3nccn3n2)c(=O)[nH]1 (stereo not shown) [Example 169, 5-(8-(3-fluoro-3-(trifluoromethyl)pyrrolidin-1-yl)imidazo[1,2-b]pyridazin-6-yl)pyrimidine-2,4(1H,3H)-dione] |
| 7.45 | 6.87 | O=c1[nH]cc(-c2cc(N3CC(C(F)F)C4(CC4)C3)c3nccn3n2)c(=O)[nH]1 (stereo not shown) [Example 170, 5-(8-(7-(difluoromethyl)-5-azaspiro[2.4]heptan-5-yl)imidazo[1,2-b]pyridazin-6-yl)pyrimidine-2,4(1H,3H)-dione] |
| 8.50 | 7.85 | O=c1[nH]cc(-c2cc(N3CC(F)C4(CC4)C3)c3nccn3n2)c(=O)[nH]1 (stereo not shown) [Example 171, 5-(8-(7-fluoro-5-azaspiro[2.4]heptan-5-yl)imidazo[1,2-b]pyridazin-6-yl)pyrimidine-2,4(1H,3H)-dione] |
| 8.44 | 7.05 | COc1ccc(C2CCN(c3cc(-c4c[nH]c(=O)[nH]c4=O)nn4ccnc34)C2)cc1 (stereo not shown) [Example 173, 5-(8-(3-(4-methoxyphenyl)pyrrolidin-1-yl)imidazo[1,2-b]pyridazin-6-yl)pyrimidine-2,4(1H,3H)-dione] |
| 7.16 | 6.67 | CC(C)[C@@H]1CCN(c2cc(-c3c[nH]c(=O)[nH]c3=O)nn3ccnc23)C1 [Example 174, (S)-5-(8-(3-isopropylpyrrolidin-1-yl)imidazo[1,2-b]pyridazin-6-yl)pyrimidine-2,4(1H,3H)-dione] |
